Publication PMC12339163, “Combining Plant Bioactives With Antibiotics for Enhanced Antibiofilm Activity Against Uropathogenic Staphylococcus spp. and Cytotoxicity Evaluation” (Advances in Pharmacological and Pharmaceutical Sciences, 2025)
Values after ≈ are worked out from the molar mass of the structure shown. Read-outs that look alike come from different tables or passages of the source.

Columns and labels:
[1] = test system: Staphylococcus epidermidis biofilm; experiment: Checkerboard combination assay, biofilm eradication; format: cell-based
Experimental: The effect of the combination of ATBs with NPs on the preformed biofilm was evaluated by determining the FICI, as described above for biofilm formation, with slight modifications. After biofilm formation for 24 h, the plate was gently emptied and washed three times with PBS. Then, 50 µL of ATBs and 50 µL of NPs were introduced to the plate. The final concentration ranges from 0.0625 to 128 µg/mL and from 4 to 512 µg/mL for ATBs and NPs, respectively, and is incubated at 37°C for 24 h. After incubation, the medium was gently removed, and the plate was washed three times with PBS. At the end of the incubation time, the MTT reduction assay was performed, and the MBEC was determined. To assess the effect of the combination, the FICI was calculated and interpreted as described above.

[2] = test system: planktonic cells of Staphylococcus saprophyticus; experiment: Checkerboard combination assay, planktonic cells; format: cell-based; conditions: S. saprophyticus, mean; for MIC: Staphylococcus saprophyticus
Experimental: (§1) The checkerboard assay, as previously described, was used for the determination of the fractional inhibitory concentration index (FICI). Briefly, 50 µL of MHB was distributed into each well of a 96-well microplate. ATBs were serially diluted along the abscissa, and NPs were serially diluted along the ordinate. Then, 100 µL of bacterial inoculum (1.5 × 10^6 CFU/mL) was added to each well and incubated at 37°C for 24 h. The final concentration ranged from 0.125 to 128 µg/mL for ATBs and 4–512 µg/mL for NPs. After incubation, a volume of 40 µL of INT solution (0.2 mg/mL) was added to each well, and the microplate was incubated at 37°C for 30 min. The wells containing bacterial inoculum and MHB were used as a positive control, while wells containing only MHB + 1% glucose were used as a negative control and used as a blank. Viable bacteria cells change the yellow dye of INT to a pink color. The MICs were considered to be the lowest NP concentrations that prevented the color change medium. Subsequently, the FICI was calculated according to the formula FICI = (MIC of the ATBs in combination/MIC of the ATBs alone) + (MIC of a natural substance in combination/MIC of the natural substance alone). FICI values were interpreted as follows: synergy when FICI ≤ 0.5; additive when 0.5 < FICI ≤ 1; indifference when 1 < FICI ≤ 4; and antagonism when FICI > 4.

[3] = test system: planktonic cells of Staphylococcus aureus; experiment: Checkerboard combination assay, planktonic cells; format: cell-based; conditions: S. aureus, mean; for MIC: Staphylococcus aureus
Experimental: as §1

S. aureus biofilm = experiment: Biofilm eradication assay (MBEC, MTT); format: cell-based, Staphylococcus aureus; conditions: geometric mean, S. aureus (n = 3); for minimal effective concentration: Staphylococcus aureus, 24 h
Experimental: The determination of the biofilm eradication potential of NPs and ATBs was performed as previously described. Briefly, 100 µL of bacterial inoculum (1.5 × 10^6 CFU/mL) and 100 µL of MHB + 1% glucose were introduced into the microplate, incubated at 37°C for 24 h, and the microplate was gently emptied and washed three times with PBS. Then, 200 µL of ATBs or NPs at respective concentrations ranging from 8 to 1024 µg/mL and from 16 to 2048 µg/mL were incubated at 37°C for 24 h. Once incubation was completed, the microplate was processed as described above, and the percentage of biofilm eradication was calculated using the formula below. The minimal biofilm eradicating concentration (MBEC) was recorded as the lowest concentration of the test sample that reduces 100% of biofilm:(2) % biofilm eradication=ODcontrol−ODblank−ODtest−ODblank/ODcontrol−ODblank×100.

S. epidermidis = experiment: MIC and MBC, broth microdilution; format: cell-based, Staphylococcus epidermidis; conditions: geometric mean, S. epidermidis (n = 3)
Experimental: (§2) Seven clinical isolates of Staphylococcus spp. including 2 S. aureus, 3 S. saprophyticus, and 2 S. epidermidis were used. They were isolated from urine samples in our previous study. Two reference strains (S. aureus ATCC1026 and S. epidermidis ATCC35984) obtained from the American Type Culture Collection were also included. They were kept in the mixture of glycerol and Mueller Hinton Broth (MHB) (1:1) at −20°C, and the activation was achieved using the streak technique on Mueller Hinton agar (MHA) medium.
(§3) The MICs of ATBs and NPs were determined by the broth microdilution method as previously described. NPs and ATBs were, respectively, prepared at 4096 µg/mL and 512 µg/mL and serially diluted twofold with MHB in a 96-well microplate at a volume of 100 µL. Then, the wells were filled with 100 µL of inoculum (1.5 × 10^6 CFU/mL) to give final concentrations ranging from 1024 µg/mL to 0.5 µg/mL and 128 µg/mL to 0.062 µg/mL of NPs and ATBs, respectively. The microplates were incubated for 24 h at 37°C. Wells containing only bacterial inoculum were used as the negative control. After incubation, a volume of 40 µL of INT solution (0.2 mg/mL) was added to each well, and the microplate was incubated at 37°C for 30 min. Viable bacteria cells change the yellow dye of INT to a pink color. The MIC was considered as the lowest concentration of the sample at which there was no change in the coloration of the medium, corresponding to the complete inhibition of microbial growth.
(§4) All tests were performed in triplicate.

S. saprophyticus = experiment: MIC and MBC, broth microdilution; format: cell-based, Staphylococcus saprophyticus; conditions: geometric mean, S. saprophyticus (n = 3)
Experimental: as §2, §3, §4

[4] = S. epidermidis biofilm eradication, antibiotic alone, mean MBEC
[5] = Staphylococcus epidermidis, antibiotics, read-out: MBC
[6] = Staphylococcus epidermidis, read-out: MIC
[7] = Staphylococcus saprophyticus, antibiotics, read-out: MBC
[8] = Staphylococcus saprophyticus, read-out: MIC
[9] = S. epidermidis, biofilm eradication, mean

SMILES	MBEC Alone ATB [1, 4] [µg/mL]	MIC ([2]; 24 h, read-out: MIC alone, ATB) [µg/mL]	MIC ([2]; read-out: MIC alone, ATB) [µg/mL]	MIC ([3]; 24 h, read-out: MIC alone, ATB) [µg/mL]	MIC ([3]; read-out: MIC alone, ATB) [µg/mL]	minimal effective concentration (S. aureus biofilm) [µg/mL]	MBC (S. epidermidis; [5]) [µg/mL]	MIC (S. epidermidis; [6]) [µg/mL]	MBC (S. saprophyticus; [7]) [µg/mL]	MIC (S. saprophyticus; [8]) [µg/mL]	MBEC Alone ATB [1, 9] [µg/mL]	other results
CC1(C)S[C@@H]2[C@H](NC(=O)[C@H](N)c3ccc(O)cc3)C(=O)N2[C@H]1C(=O)O [Amoxicillin, amoxicillin]	16	22	22	86.7	86.7	37.3	> 128	26.8 (≈ 73.4 µM)	> 128	22 (≈ 60.2 µM)	–	–
O=c1c(O)c(-c2ccc(O)c(O)c2)oc2cc(O)cc(O)c12 [Quercetin, quercetin]	–	–	–	–	–	128	–	512 (≈ 1690 µM)	–	341 (≈ 1130 µM)	–	MIC alone, NPs ([2]; listed as Que): 341.33 µg/mL; MIC ([2]; 24 h, read-out: MIC alone, NPs): 427 µg/mL; MIC ([2]; read-out: MIC alone, NPs): 427 µg/mL; MIC ([3]; 24 h, read-out: MIC alone, NPs): 427 µg/mL; MIC ([3]; read-out: MIC alone, NPs): 341 µg/mL; MBC (S. epidermidis; Staphylococcus epidermidis, natural products, read-out: MBC): > 1020 µg/mL; MBC (S. saprophyticus; Staphylococcus saprophyticus, natural products, read-out: MBC): > 1020 µg/mL
C=CC1=C(C(=O)O)N2C(=O)[C@@H](NC(=O)/C(=N\OCC(=O)O)c3csc(N)n3)[C@H]2SC1 [Cefixime, cefixime]	42.66	192	192	213	213	42.7	> 128	107 (≈ 235 µM)	> 128	192 (≈ 423 µM)	–	–
NC[C@H]1O[C@H](O[C@H]2[C@H](O)[C@@H](O[C@H]3O[C@H](CO)[C@@H](O)[C@H](N)[C@H]3O)[C@H](N)C[C@@H]2N)[C@H](O)[C@@H](O)[C@@H]1O [Kanamycin, kanamycin]	13.33	–	–	–	–	–	–	–	–	–	–	MIC alone, ATB [2]: 14 µg/mL; MIC alone, ATB [3]: 22.66 µg/mL; MBEC (S. aureus biofilm): 14.66 µg/mL; MBC (S. epidermidis; antibiotics): 12 µg/mL (≈ 24.8 µM); MIC (S. epidermidis): 7.33 µg/mL (≈ 15.1 µM); MBC (S. saprophyticus; antibiotics): — (> 128 µg/mL for ATBs); MIC (S. saprophyticus): 14 µg/mL (≈ 28.9 µM)
C[C@H]1c2cccc(O)c2C(=O)C2=C(O)[C@]3(O)C(=O)C(C(N)=O)=C(O)[C@@H](N(C)C)[C@@H]3[C@@H](O)[C@@H]21 [Doxycycline, doxycycline]	16	32.2	32.2	6.16	6.16	16	8 (≈ 18 µM)	7 (≈ 15.8 µM)	> 128	32.2 (≈ 72.4 µM)	16	–
Cc1nnc(SCC2=C(C(=O)O)N3C(=O)[C@@H](NC(=O)Cn4cnnn4)[C@H]3SC2)s1 [Cefazolin, cefazolin]	10.66	64.7	64.7	42.7	42.7	42.7	139 (≈ 305 µM)	42.7 (≈ 93.9 µM)	> 128	64.7 (≈ 142 µM)	42.66	–
